Here are results for five compounds from patent US7456018B2, “Human hepatoma lines, methods for obtaining same and uses thereof” (priority 2001, dated 2008).

Data set [1] concerns HBV. Briefly: HBs antigen in culture supernatant of HBV-infected HepaRG cells treated by 3TC (ELISA). The following applies: after 8 days of treatment by 3TC, all doses. It counts as cell-based, hepatitis B virus. On the procedure:
(§1) The cells are maintained and infected according to the protocols of Examples 1 and 5.
The antiviral treatment by 3TC is administered from the 8th day to the 15th day following the infection of the HepaRG cells, at final concentrations of 0.1 and 10 μM in the culture medium. A complete replenishment of the medium is carried out every two days. The supernatants are stored at −20° C. and the cell pellets at −80° C.
The viral antigen (HBs) was detected in the culture supernatant using the commercial ELISA test ETI-MAK-3® (SORIN).
In general terms: In an ELISA, binding on a coated surface is turned into a signal by an enzyme label.

Data set [2] concerns HBV. The experiment in a line: Antiviral activity of 3TC on HBV-infected HepaRG cells, viral DNA by Amplicor-Monitor test. In kind it is cell-based, hepatitis B virus. The following applies: day 8 to 15 after infection, vs infected non-treated control. On the procedure:
as §1
[…] A complete replenishment of the medium is carried out every two days. The supernatants are stored at −20° C. and the cell pellets at −80° C.
The viral DNA present in the culture supernatant could be detected and quantified by the Amplicor-Monitor test (ROCHE). The results are expressed as number of viral particles/ml. For the analysis of intracellular viral DNA, the cells were separated with trypsin and stored at −80° C. The total DNA was isolated according to the protocol described previously (Zoulim et al., 1998, Drug therapy for chronic hepatitis B virus replication. J. Hepatol. 29:151-168).

Data set [3] has as its system HBV. The experiment in a line: Infectability of HepaRG cells by HBV according to culture/differentiation medium, HbsAg secretion. It counts as cell-based, hepatitis B virus. On the procedure: The cells used for the infection are cells having been cultured according to the conditions defined in Example 1 (permanent presence of 5.10^−5M of hydrocortisone hemisuccinate) and having been maintained for a week at confluence, then for 2 weeks in the same medium with 2% of DMSO added.
These cells are incubated with the infectious source, diluted 10 times, in the culture medium with 4% of PEG 8000 (Sigma) added, for 20 hours at 37° C. The second part of this HBV infection protocol was established by Gripon et al., 1993, Virology, 192: 534-540.
At the end of the incubation, the cells are washed three times with culture medium and maintained in the presence of 2% of DMSO and 5.10^−5 M of hydrocortisone hemisuccinate until they are used.
The HBs antigen was detected in the medium using the ELISA kit (Monolisa AgHBs plus®) from Biorad Laboratories. The results are expressed in pg/ml of supernatant.
The ability of the HepaRG cells to be infected was studied as a function of their degree of differentiation. Using the methods described in Examples 1 and 2, the cell differentiation programme was modified.
A first series of infection was carried out on cells continually maintained in the presence of corticoid only, then in the presence of corticoid and different concentrations of DMSO, in order to induce different stages of differentiation.
This correlation was confirmed by a series of experiments carried out on cells infected at confluence (before their differentiation) then placed under optimum conditions in order to induce their differentiation.
Finally, the effectiveness of an infection carried out on undifferentiated cells multiplying actively was compared with that on cells with arrested growth and well-differentiated.

The test system of data set [4] is HepaRG cells. Briefly: Biliary/hepatocyte route differentiation of HepaRG cells, in situ marking (indirect immunohistochemistry). On Albumin expression: key: −/+: weakly positive; +: positive; ++: highly positive. On Cytokeratin 7 expression: key: −/+: weakly positive; +: positive; ++: highly positive. On α1 chain expression: key: −/+: weakly positive; +: positive; ++: highly positive. On α6 chain expression: key: −/+: weakly positive; +: positive; ++: highly positive. On γ-glutamyl transferase expression: key: −/+: weakly positive; +: positive; ++: highly positive. In kind it is cell-based, human. Also on record: Cytokeratin 19 expression: key: −/+: weakly positive; +: positive; ++: highly positive. Particulars: HepaRG cells treated with 2% DMSO or 3.75 mM sodium butyrate. On the procedure: HepaRG cells were separated, diluted to ⅕ in Williams' E medium to which 5 μg/ml of insulin, 100 U/ml of penicillin, 100 μg/ml of streptomycin, 510-5M of hydrocortisone hemisuccinate, 2 mM of L-glutamine and 10% FCS were added, then redistributed into wells with a plastic support. Four culture conditions were produced: • HepaRG cells were treated with 3.75 mM sodium butyrate in the maintenance medium as from the day following subculture according to the protocol described by Blouin et al. (1995, Specialization switch in differentiating embryonic rat liver progenitor cells in response to sodium butyrate, Exp. cell res., 217: 22-33). The medium is then replenished every 2-3 days, • the HepaRG cells were treated 5 days after subculture by 3.75 mM sodium butyrate or 2% DMSO. The medium was replenished every day for 5 days, • the HepaRG cells were treated at strong confluence by 3.75 mM sodium butyrate; the medium was replenished every 2-3 days, • the HepaRG cells were seeded on a plastic support or monolayer of rat primitive biliary epithelial cells in MEM alpha medium complemented with L-glutamine (2 mM), i-inositol (0.2 mM), folic acid ([…]), β-mercaptoethanol (10^−4 M), transferrin 200 μg/ml, 12.5% FCS and 12.5% horse serum. In certain situations, cytokines such as LIF, IL-3, SCF or G-CSF were added to the medium. This medium was replenished every 2-3 days. Indirect Immunohistochemistry
The cells after washing with PBS are fixed by a solution of 4% paraformaldehyde buffered by 0.1 M sodium cacodylate at pH 7.4 for 20 minutes at 4° C. They are then preserved in a PBS buffer until the time of the analysis.
The specific sites are saturated for 45 minutes with PBS containing 10% FCS. The samples are then treated with primary antibodies for an hour at ordinary temperature in PBS containing 0.05% saponin. After 3 washings in PBS containing 0.05% saponin, the samples are incubated with the second antibody coupled to peroxydase.
The morphological modifications observed in the presence of sodium butyrate are correlated to phenotypical changes (Blouin et al. 1995). We used four markers of differentiation towards the biliary route, γ-glutamyl transferase, the α6 chain of integrins and the cytokeratins 7 and 19 which normally disappear when the cells are directed towards the hepatocyte route. For differentiation towards the hepatocyte route, we looked for an increase in the expression of albumin and a reduction in the expression of the al chain of the integrins.

Data set [5] has as its system HepaRG cells. The experiment in a line: Toxicity of DMSO to HepaRG cells without corticoid. Particulars: 2% of DMSO, HepaRG cells in the absence of corticoid. It counts as cell-based, human. The method, then: A first series of experiments was carried out in order to study the effects of the absence of the corticoid on cells having always been maintained in its presence. In FIG. 9A, the HepaRG cells at passage 13, were kept for 2 additional passages either in the continuous presence of hydrocortisone (growth: HN), or in the absence of hydrocortisone (growth: HO). They were then induced to differentiate (diff.) for 3 weeks in the absence of hydrocortisone (HO) or in the presence of hydrocortisone 5×10^−5 M (HN), and in the presence of different concentrations of DMSO.
The withdrawal of the corticoid was carried out at confluence, i.e. at the time when the cells begin their differentiation.
The cells are kept in a culture medium without corticoid and their ability to carry out differentiation is tested after 2 (FIG. 9A) and 10 passages (FIG. 9B).

The test system of data set [6] is HCV. The experiment in a line: Sensitivity of HCV replication in infected HepaRG cells to interferon α, viral RNA by RT-PCR. In kind it is cell-based. Particulars: 5 U.I./ml. On the procedure: These cells are incubated for 48 hours at 37° C. with the infectious source, diluted 10 times, in the culture medium devoid of FCS and optionally with PEG 8000 (Sigma) added.
The replicative forms of the intracellular viral RNAs were isolated in all the cell lysates. The cells are recovered after separation with trypsin, then the total RNA is extracted using the High Pure RNA Isolation kit (Roche). The quantity of total RNA extracted is estimated by optical density in order to standardize the different samples. The quality and homogeneity of the RNAs are examined by visualizing the ribosomic RNAs (rRNA: 28S and 18S) on a 1% agarose gel stained with ethidium bromide.
The RNAs of the viral particles are extracted from the culture supernatant using the High Pure viral RNA kit (Roche).
By retrotranscription (RT), the complementary DNA (cDNA) of the viral RNAs of positive polarity is synthesized from a specific prime hybridizing at 5′ of the region which codes for the viral capsid protein. This oligonucleotide (5′-[…]-3′), designated as SEQ ID NO:1, derived from that described by Martell et al., 1999, Journal of Clinical Microbiology, 37: 327-332 , designated C-342. The cDNA is then amplified by the “Polymerase Chain Reaction” (PCR) technique using two primers hybridizing in the 5′ non-translated region of the viral genome. The primers used are as follows: the sense oligonucleotide (5′-TGAGTGTCGTRCAGCCTCC-3′), designated as SEQ ID NO:2, and the antisense oligonucleotide (5′-[…]-3′), designated as SEQ ID NO:3, which corresponds to that conceived by Mercier et al., 1999, Journal of Virological Methods, 77 1-9, designated NCR-3. The amplification product (amplicon of 190 pb) is visualized on a 2% agarose gel stained with ethidium bromide. A marker of molecular weight of DNA (M) is also deposited in order to verify the identity of the amplicon by its size. The effectiveness of the different stages is always controlled by detecting the viral RNA present in a standard (T+), which corresponds to a diluted serum, originating from an infected patient. […]

“Also recorded” adds a separate entry of the source.

`Nc1ccn([C@@H]2CS[C@H](CO)O2)c(=O)n1` [3TC]: in data set [1], the “HBs antigen in the culture supernatant” value is “constant whatever the dose and equal to the non-treated control”. Also, the “Inhibition (quantity of viral DNA)” value in data set [2] (3TC 0.1 μM) stood at 69; in data set [2] (3TC 1 μM), 98; in data set [2] (3TC 10 μM) it was 100.

In the case of `C[S+](C)[O-]` [DMSO], the HbsAg secretion in data set [3] (DMSO 1% in differentiation medium after day 17, infection on day 15, supernatant 47 days after seeding) is 70 pg/mL; in data set [3] (DMSO 1% in differentiation medium after day 17, infection on day 28, supernatant 47 days after seeding), 214 pg/mL; in data set [3] (DMSO 2% in differentiation medium after day 17, infection on day 15, supernatant 47 days after seeding), 79 pg/mL; in data set [3] (DMSO 2% in differentiation medium after day 17, infection on day 28, supernatant 47 days after seeding) it was above 2000 pg/mL. Besides, the Albumin expression entry in data set [4] is recorded as “++”. The α1 chain expression entry in data set [4] is “+”. In addition, the γ-glutamyl transferase expression entry in data set [4] is given as “−/+”. In addition, the “Toxicity of the addition of DMSO” value in data set [5] was “so toxic that its use is impossible; also recorded: highly toxic”.

As to `CCCC(=O)[O-].[Na+]` [Sodium butyrate, sodium butyrate], in data set [4], the Albumin expression result was “−/+”, the “Cytokeratin 7 expression” value is recorded as “+”, the “Cytokeratin 19 expression” value is on record as “++” and the α1 chain expression result was “−/+”. In data set [4], the α6 chain expression entry is recorded as “+” and the γ-glutamyl transferase expression entry is “++”.

Consider hydrocortisone hemisuccinate [HN], for which the HbsAg secretion in data set [3] (culture HN, HN after 17th day, infection D3 (growth), 47 days after seeding) turned out to be 33 pg/mL; in data set [3] (culture HN, HN after 17th day, infection D5 (growth), 47 days after seeding), 37 pg/mL; in data set [3] (culture HN, HN after 17th day, infection D10 (confluence), 47 days after seeding), 93 pg/mL; in data set [3] (culture HN, HN with 2% of DMSO after 17th day, infection D3 (growth), 47 days after seeding) it was 41 pg/mL; in data set [3] (culture HN, HN with 2% of DMSO after 17th day, infection D5 (growth), 47 days after seeding), 84 pg/mL; in data set [3] (culture HN, HN with 2% of DMSO after 17th day, infection D10 (confluence), 47 days after seeding), 171 pg/mL.

Regarding “interferon α: antiviral cytokine (Introna®, Schering-Plough, France)”, the “Extracellular viral RNA, kinetics” value in data set [6] (after four days of incubation, Day 10 to Day 12) is on record as “no extracellular viral RNA is detected”. In addition, in data set [6] (six days of treatment, 12th day after infection), the “Viral RNA signal in the extracellular medium” value is “complete disappearance of the signal”. Moreover, the “Drop of the intracellular viral RNA signal” value in data set [6] (six days of treatment, 12th day after infection, serum No. 4) was “more than 60%”.
